Measurements published in patent publication US8642594B2, “Substituted thieno[2,3-d]pyrimidines as HSP90 inhibitors” (Vernalis (R&D) Limited, priority 2003, dated 2014).

What follows are molecules tested against T1, Human full-length Hsp90 (Homo sapiens, UniProt P08238) (assay: Fluorescence polarization assay (competitive binding to HSP90, probe RBT0045864-FAM)). Conditions: not given.
T1 construct: E. coli expressed human full-length HSP90 protein, purified >95%; made in house; host or cells: E. coli
T1 sequence (P08238 whole entry): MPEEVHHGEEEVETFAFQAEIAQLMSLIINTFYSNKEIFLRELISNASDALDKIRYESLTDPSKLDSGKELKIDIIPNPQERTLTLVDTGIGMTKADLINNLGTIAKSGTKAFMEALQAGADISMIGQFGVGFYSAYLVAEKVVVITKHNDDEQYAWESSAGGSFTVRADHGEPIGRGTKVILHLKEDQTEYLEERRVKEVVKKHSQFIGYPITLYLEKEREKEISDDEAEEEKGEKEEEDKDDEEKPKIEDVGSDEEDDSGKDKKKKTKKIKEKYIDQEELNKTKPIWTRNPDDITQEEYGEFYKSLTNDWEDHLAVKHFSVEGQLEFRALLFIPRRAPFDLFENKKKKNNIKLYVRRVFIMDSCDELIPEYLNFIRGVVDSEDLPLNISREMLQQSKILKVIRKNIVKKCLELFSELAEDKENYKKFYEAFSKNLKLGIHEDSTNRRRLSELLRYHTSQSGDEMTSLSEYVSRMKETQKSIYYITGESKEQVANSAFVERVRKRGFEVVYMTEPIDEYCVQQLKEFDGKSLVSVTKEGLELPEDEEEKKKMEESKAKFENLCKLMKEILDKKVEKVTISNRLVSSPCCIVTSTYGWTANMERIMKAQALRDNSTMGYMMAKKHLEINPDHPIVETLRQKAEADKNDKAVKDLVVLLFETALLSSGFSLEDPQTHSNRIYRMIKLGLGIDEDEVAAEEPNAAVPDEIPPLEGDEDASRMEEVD
Procedure: Fluorescence Polarization Assay
Fluorescence polarization {also known as fluorescence anisotropy} measures the rotation of a fluorescing species in solution, where the larger molecule the more polarized the fluorescence emission. When the fluorophore is excited with polarized light, the emitted light is also polarized. The molecular size is proportional to the polarization of the fluorescence emission.
The fluoroscein-labelled probe—RBT0045864-FAM—
Test compound is added to the assay plate, left to equilibrate and the anisotropy measured again. Any change in anisotropy is due to competitive binding of compound to HSP90, thereby releasing probe.
Stored at room temperature. • 3) BSA (bovine serum albumen) 10 mg/ml (New England Biolabs #B9001S) • 4) 20 mM probe in 100% DMSO stock concentration. Stored in the dark at RT. Working concentration is 200 nM diluted in AR water and stored at 4° C. […] Protocol • 1) Add 100 μl 1× buffer to wells 11A and 12A (=FP BLNK) • 2) Prepare assay mix—all reagents are kept on ice with a lid on the bucket as the probe is light-sensitive.
This gives 2.5 mM {50×} stock cpd—assuming cpds 20 mM. • 4) Repeat for wells A2 to A10. Control in columns 11 and 12. • 5) Transfer 5 μl from row A to row B—not column 12. Mix well. • 6) Transfer 5 μl from row B to row C. […] Add 2 μl of 100 mM standard cpd to wells B12-H12 {is positive control} • 13) The Z′ factor is calculated from zero controls and positive wells.

| Structure (SMILES) | IC50 [µM] |
| --- | --- |
| CCNC(=O)c1cc2c(-c3ccc(C#N)cc3C)nc(N)nc2s1 [Example 84] | < 10 |
| CCNC(=O)c1cc2c(-c3cc(OCCN4CCN(C)CC4)c(Cl)cc3Cl)nc(N)nc2s1 [Example 246] | < 10 |
| CCNC(=O)c1cc2c(-c3cc(OCC#N)c(Cl)cc3Cl)nc(N)nc2s1 [Example 270] | < 10 |
| CCNC(=O)c1cc2c(-c3cc(OCCCN(C)C)c(Cl)cc3Cl)nc(N)nc2s1 [Example 255] | < 10 |

Same assay, conditions: fluorescence polarization assay, activity range; read-out: Hsp90 FP IC50

| IC50 [µM] | Structure (SMILES) |
| --- | --- |
| < 10 | C[C@H](NC(=O)c1cc2c(-c3ccc(Cl)cc3Cl)nc(N)nc2s1)C(N)=O [Example 160] |
| > 10 | CCOC(=O)c1cc2c(NCCCc3c[nH]nc3O)nc(N)nc2s1 [Example 36] |
| < 10 | Cc1ccc(-c2nc(N)nc3sc(C(=O)Nc4ccccc4)cc23)c(C)c1 [Example 91] |
| < 10 | CCOC(=O)c1cc2c(-c3ccc(Cl)cc3C)nc(N)nc2s1 [Example 3] |
| < 10 | CCOC(=O)c1cc2c(-c3cc(C=O)c(C)cc3C)nc(N)nc2s1 [Example 174] |
| < 10 | CCOC(=O)c1cc2c(C(C#N)c3ccc4c(c3)OCO4)nc(N)nc2s1 (stereo not drawn) [Example 316, 2-Amino-4-(benzo[1,3]dioxol-5-yl-cyano-methyl)-thieno[2,3-d]pyrimidine-6-carboxylic acid ethyl ester] |
| < 10 | CCNC(=O)c1cc2c(-c3cc(CNCCc4cnc[nH]4)ccc3C)nc(N)nc2s1 [Example 204] |
| > 10 | CC(C)CNC(=O)c1cc2c(-c3ccccc3)nc(N)nc2s1 [Example 52] |
| < 10 | CCOC(=O)c1cc2c(CCc3ccccc3)nc(N)nc2s1 [Example 275, 2-Amino-4-phenethyl-thieno[2,3-d]pyrimidine-6-carboxylic acid ethyl ester] |
| < 10 | CCOC(=O)c1cc2c(-c3ncccc3C)nc(N)nc2s1 [Example 115] |
| > 10 | CNC(=O)c1cc2c(Oc3ccccc3)nc(N)nc2s1 [Example 27] |
| > 10 | CCOC(=O)c1cc2c(NCCCc3c[nH]nc3C)nc(N)nc2s1 [Example 37] |
| > 10 | CNC(=O)c1cc2c(NCc3ccccc3)nc(N)nc2s1 [Example 65] |
| < 10 | CCNC(=O)c1cc2c(-c3cc(CNC4CC4)ccc3C)nc(N)nc2s1 [Example 203] |
| < 10 | CCOC(=O)c1cc2c(-c3ccc(CO)cc3)nc(N)nc2s1 [Example 35] |
| > 10 | CCOC(=O)c1cc2c(-c3ccc(OCc4ccccc4)cc3C)nc(N)nc2s1 [Example 90] |
| > 10 | Nc1nc(-c2ccccc2)c2cc(C(=O)Nc3ccccc3)sc2n1 [Example 60] |
| < 10 | Nc1nc(-c2ccc(Cl)cc2Cl)c2cc(C(=O)NC3CC3)sc2n1 [Example 155] |
| < 10 | Cc1ccc(-c2nc(N)nc3sc(C(=O)NCCc4c[nH]cn4)cc23)c(C)c1 [Example 86] |
| < 10 | CCOC(=O)c1cc2c(/C=C/c3ccc(Cl)cc3)nc(N)nc2s1 [Example 281] |
| > 10 | CCOC(=O)c1cc2c(-c3cccc(CN4CCCC4)c3)nc(N)nc2s1 [Example 7] |
| < 10 | Nc1nc(-c2ccc(Cl)cc2Cl)c2cc(C(=O)NCCCN3CCCC3)sc2n1 [Example 145] |
| > 10 | CCOC(=O)c1cc2c(-c3ccccn3)nc(N)nc2s1 [Example 104] |

| IC50 [µM] | Structure (SMILES) |
| --- | --- |
| < 10 | NC(=O)[C@H](Cc1ccc(O)cc1)NC(=O)c1cc2c(-c3ccc(Cl)cc3Cl)nc(N)nc2s1 [Example 163] |
| > 10 | CCOC(=O)c1cc2c(-c3cc4ccccc4o3)nc(N)nc2s1 [Example 13] |
| > 10 | CCCCOc1ccc(-c2nc(N)nc3sc(C(=O)OCC)cc23)c(C)c1 [Example 186] |
| < 10 | CCN1CCCC1CNC(=O)c1cc2c(-c3ccc(Cl)cc3Cl)nc(N)nc2s1 (stereo not drawn) [Example 129] |
| < 10 | CCNC(=O)c1cc2c(-c3cc(CNCC(C)C)ccc3C)nc(N)nc2s1 [Example 218] |
| < 10 | CCOC(=O)c1cc2c(-c3cccc(C)c3C)nc(N)nc2s1 [Example 87] |
| < 10 | CCNC(=O)c1cc2c(-c3cc(CNCCO)c(C)cc3C)nc(N)nc2s1 [Example 234] |
| < 10 | CC(C)NC(=O)c1cc2c(-c3cc(OCc4ccccc4)c(Cl)cc3Cl)nc(N)nc2s1 [Example 242] |
| > 10 | CCOC(=O)c1cc2c(-c3c[nH]c4ccccc34)nc(N)nc2s1 [Example 294] |
| < 10 | CCNC(=O)c1cc2c(-c3cc(OCc4noc(-c5ccccc5OC)n4)c(Cl)cc3Cl)nc(N)nc2s1 [Example 269] |
| < 10 | Nc1nc(-c2ccccc2)c2cc(C(=O)NCCO)sc2n1 [Example 72] |
| < 10 | CCCOc1ccc(-c2nc(N)nc3sc(C(=O)OCC)cc23)c(C)c1 [Example 185, 2-Amino-4-(2-methyl-4-propoxy-phenyl)-thieno[2,3-d]pyrimidine-6-carboxylic acid ethyl ester] |
| < 10 | CCOC(=O)c1cc2c(-c3ccc(C)cn3)nc(N)nc2s1 [Example 114] |
| > 10 | CNC(=O)c1cc2c(N(C)Cc3ccccc3)nc(N)nc2s1 [Example 67] |
| < 10 | CCNC(=O)c1cc2c(-c3cc(OCCN4CCOCC4)c(Cl)cc3Cl)nc(N)nc2s1 [Example 236, 2-Amino-4-[2,4-dichloro-5-(2-morpholin-4-yl-ethoxy)-phenyl]-thieno[2,3-d]pyrimidine-6-carboxylic acid ethyl amide] |
| > 10 | CCOC(=O)c1cc2c(-c3ccc(OCC(=O)OC(C)(C)C)cc3C)nc(N)nc2s1 [Example 192] |
| < 10 | Nc1nc(-c2ccc(Cl)cc2Cl)c2cc(C(=O)NC(CO)CO)sc2n1 [Example 127] |
| > 10 | Nc1nc(-c2ccccc2)c2cc(C(=O)NCCN3CCOCC3)sc2n1 [Example 46] |
| < 10 | CCOC(=O)c1cc2c(C(C)(O)c3ccc4c(c3)OCO4)nc(N)nc2s1 (stereo not drawn) [Example 315, 2-Amino-4-(1-benzo[1,3]dioxol-5-yl-1-hydroxy-ethyl)-thieno[2,3-d]pyrimidine-6-carboxylic acid ethyl ester] |
| < 10 | CC(C)NC(=O)c1cc2c(-c3ccccc3)nc(N)nc2s1 [Example 56] |
| > 10 | CCOC(=O)c1cc2c(-c3cccnc3)nc(N)nc2s1 [Example 94] |
| > 10 | CCC(C)NC(=O)c1cc2c(-c3ccccc3)nc(N)nc2s1 (stereo not drawn) [Example 59] |
| < 10 | CCNC(=O)c1cc2c(-c3cc(CNCCC(N)=O)ccc3C)nc(N)nc2s1 [Example 208] |

| IC50 [µM] | Structure (SMILES) |
| --- | --- |
| > 10 | CCCCNC(=O)c1cc2c(-c3ccccc3)nc(N)nc2s1 [Example 48] |
| < 10 | CCOC(=O)c1cc2c(-c3cc(C)ccc3C)nc(N)nc2s1 [Example 88] |
| < 10 | CCN(CC)CCOc1cc(-c2nc(N)nc3sc(C(=O)NC(C)C)cc23)c(Cl)cc1Cl [Example 237, 2-Amino-4-[2,4-dichloro-5-(2-diethylamino-ethoxy)-phenyl]-thieno[2,3-d]pyrimidine-6-carboxylic acid isopropyl amide] |
| < 10 | Cc1ccc(-c2nc(N)nc3sc(C(=O)NCc4ccccc4)cc23)c(C)c1 [Example 92] |
| < 10 | Nc1nc(-c2ccc(Cl)cc2Cl)c2cc(C(=O)NCCCO)sc2n1 [Example 101] |
| > 10 | CCOC(=O)c1cc2c(NC(c3ccccc3)c3ccccc3)nc(N)nc2s1 [Example 25] |
| < 10 | CCNC(=O)c1cc2c(-c3cc(CNCC4CCCO4)ccc3C)nc(N)nc2s1 (stereo not drawn) [Example 223] |
| < 10 | Cc1ccc(-c2nc(N)nc3sc(C(=O)NC(C)C)cc23)c(C)c1 [Example 81] |
| < 10 | Nc1nc(-c2ccccc2)c2cc(C(=O)NC3CCCC3)sc2n1 [Example 62] |
| < 10 | CCNC(=O)c1cc2c(-c3cc(OCCn4ccnc4)c(Cl)cc3Cl)nc(N)nc2s1 [Example 263] |
| < 10 | CCNC(=O)c1cc2c(-c3cc(OCCN4CCCCC4)c(Cl)cc3Cl)nc(N)nc2s1 [Example 238] |
| < 10 | Nc1nc(-c2ccc(Cl)cc2Cl)c2cc(C(=O)Nc3ccc(F)cc3)sc2n1 [Example 135] |
| < 10 | CCNC(=O)c1cc2c(-c3cc(CNCc4ccc(C)o4)ccc3C)nc(N)nc2s1 [Example 211] |
| > 10 | CCOC(=O)c1cc2c(-c3ccccc3CC)nc(N)nc2s1 [Example 76] |
| < 10 | CCOC(=O)c1cc2c(C(=O)c3cc(C)ccc3C)nc(N)nc2s1 [Example 299] |
| < 10 | CCCCNCc1ccc(C)c(-c2nc(N)nc3sc(C(=O)NCC)cc23)c1 [Example 213] |
| < 10 | Nc1nc(-c2ccc(Cl)cc2Cl)c2cc(C(=O)NCCCn3ccnc3)sc2n1 [Example 146] |
| < 10 | C[C@@H](NC(=O)c1cc2c(-c3ccc(Cl)cc3Cl)nc(N)nc2s1)c1ccccc1 [Example 138] |
| < 10 | Nc1nc(-c2ccc(Cl)cc2Cl)c2cc(C(=O)NCc3ccc(Cl)cc3)sc2n1 [Example 121] |
| < 10 | CCNC(=O)c1cc2c(-c3cc(CNCc4ccccc4)c(C)cc3C)nc(N)nc2s1 [Example 232] |
| < 10 | CCN(CC)CCOc1cc(-c2nc(N)nc3sc(C(=O)NC(C)(C)C)cc23)c(Cl)cc1Cl [Example 265] |
| < 10 | CCNC(=O)COc1ccc(-c2nc(N)nc3sc(C(=O)OCC)cc23)c(C)c1 [Example 195] |
